Laboratory results as given in patent US20230341377A1, “DISCONNECTION AGENTS” (DC Europa Limited, priority 2020, published 2023).

Assays:
Hs578T cells = assay: SMS assay in Hs578T cells; format: cell-based, human; details: versus vehicle and PMA (5 nM), FIG. 2A, 2B, 2D, 2E
Excerpt: (§1) The SMS assay was developed to assess the transfer of cell dye (for example the acetoxymethyl [AM]-based Calcein AM), between cancer cells. The SMS assay can be applied to any cell lines forming tumour networks such as tumour microtubes (TM) or tunneling nanotubes (TNT), which enable the transfer of molecules across cells. The SMS assay can be used to assess networking capabilities of any cancer cell lines including HepG2 hepatocellular carcinoma cells, Hs578T cell line for human breast cancer, and U373 cell line for human glioblastoma.
(§2) The SMS assay is illustrated in FIG. 1. For the SMS assay, two sets of cells are stained with the cell dye of choice and a customary cell tracker dye (for example cell tracker blue) using established staining techniques (steps 1 and 2). Each set of cells are then co-incubated with the compound of interest to assess its capabilities to modulate the cells small molecule sharing characteristics (step 3). Then the two sets of cells are combined on a plate, for example at a ratio of 1:1, and cultured in the presence of the compound of interest (Step 4).
(§3) Finally, live cells are evaluated for viability and analyzed by flow cytometry for the uptake of cell dye in the […] cells (Step 5). The comparison of cell tracker uptake against positive and negative control enables the assessment of the compound's ability to modulate the tumour networks including those formed by TM and TNTs
(§4) The SMS assay has been applied to assess the modulation of network sharing capabilities of Protein Kinase C Modulators (PKCm) at various concentrations in the Hs578 cell line for human breast cancer, U373 cell line of human glioblastoma, and HepG2 hepatocellular carcinoma cells. PBS vehicle was used as negative control and the PKCm PHORBOL 12-MYRISTATE 13-ACETATE (PMA) at a concentration of 5 nM was used as the positive control.
(§5) FIG. 2A and FIG. 2B show the percentage of cell tracker cells that were accepting the cell dye transfer from separately stained donor cells according to the SMS assay of Example. The percentage of acceptor cells detected is shown in comparison to vehicle (upper horizontal line) and PMA at 5-10 nM concentration (lower horizontal line). Active PKCm in the SMS assay (FIG. 2A) show a decrease in acceptor cells relative to vehicle at certain concentration. […] The upper limit of the tested concentrations was determined as the maximal non-cytotoxic dose.

[1] = system: Hs578 cell line for human breast cancer, U373 cell line of human glioblastoma, and HepG2 hepatocellular carcinoma cells; assay: SMS assay (small molecule sharing), cell dye-sharing between cancer cells, cell lines pooled; format: cell-based; details: for effect on cell dye-sharing in the SMS assay: concentration range of 0.1 to 30 μM; for inhibition of cell dye-sharing in the SMS assay: various doses that are not cytotoxic, in one or more cell lines
Excerpt: as §1, §2, §3, §4, §5

PKCα = PKCα (Homo sapiens, UniProt P17252); set-up: key: +—activation; ++—strong activation; details: cPKCs, gene PRKCA; cited from earlier work
PKCβI/PKCβII = system: PKCβI/PKCβII; set-up: key: +—activation; ++—strong activation; details: cited from earlier work; for activation of PKCβI/PKCβII: cPKCs, gene PRKCB
HepG2 cells = assay: SMS assay in HepG2 cells; format: cell-based, human; details: versus vehicle and PMA (10 nM), FIG. 2C
Excerpt: as §1
(§6) The SMS assay is illustrated in FIG. 1. For the SMS assay, two sets of cells are stained with the cell dye of choice and a customary cell tracker dye (for example cell tracker blue) using established staining techniques (steps 1 and 2). […]
(§7) Finally, live cells are evaluated for viability and analyzed by flow cytometry for the uptake of cell dye in the flow tracker-stained cells (Step 5). […]
as §5, with “line).” for “line). Active PKCm in the SMS assay (FIG. 2A) show a decrease in acceptor cells relative to vehicle at certain concentration.”

PKCε = biological target: T1, PKCε (Homo sapiens, UniProt Q02156); set-up: key: +—activation; ++—strong activation; details: nPKCs, gene PRKCE; cited from earlier work
T1 sequence (Q02156 1-737): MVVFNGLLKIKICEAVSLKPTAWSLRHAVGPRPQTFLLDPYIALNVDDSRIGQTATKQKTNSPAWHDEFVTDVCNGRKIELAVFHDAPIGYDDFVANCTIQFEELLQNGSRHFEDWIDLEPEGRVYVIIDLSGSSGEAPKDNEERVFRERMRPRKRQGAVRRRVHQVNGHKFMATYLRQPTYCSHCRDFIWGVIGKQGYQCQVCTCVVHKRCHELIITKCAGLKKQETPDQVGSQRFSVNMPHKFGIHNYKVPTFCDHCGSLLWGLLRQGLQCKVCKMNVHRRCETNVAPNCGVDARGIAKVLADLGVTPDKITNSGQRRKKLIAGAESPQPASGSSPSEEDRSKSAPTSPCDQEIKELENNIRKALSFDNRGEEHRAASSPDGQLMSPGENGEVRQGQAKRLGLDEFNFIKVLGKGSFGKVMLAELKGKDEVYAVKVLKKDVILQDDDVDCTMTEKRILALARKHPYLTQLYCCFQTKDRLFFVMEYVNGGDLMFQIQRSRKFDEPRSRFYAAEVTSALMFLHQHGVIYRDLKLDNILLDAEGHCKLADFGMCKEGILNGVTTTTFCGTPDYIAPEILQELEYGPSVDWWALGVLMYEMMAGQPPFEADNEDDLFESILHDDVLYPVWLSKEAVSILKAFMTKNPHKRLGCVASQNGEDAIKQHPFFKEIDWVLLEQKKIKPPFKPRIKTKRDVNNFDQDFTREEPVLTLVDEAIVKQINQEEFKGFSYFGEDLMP

PKCη = PKCη (Homo sapiens, UniProt P24723); set-up: key: +—activation; ++—strong activation; details: nPKCs, gene PRKCH; cited from earlier work
PKCη, sequence (P24723 whole entry): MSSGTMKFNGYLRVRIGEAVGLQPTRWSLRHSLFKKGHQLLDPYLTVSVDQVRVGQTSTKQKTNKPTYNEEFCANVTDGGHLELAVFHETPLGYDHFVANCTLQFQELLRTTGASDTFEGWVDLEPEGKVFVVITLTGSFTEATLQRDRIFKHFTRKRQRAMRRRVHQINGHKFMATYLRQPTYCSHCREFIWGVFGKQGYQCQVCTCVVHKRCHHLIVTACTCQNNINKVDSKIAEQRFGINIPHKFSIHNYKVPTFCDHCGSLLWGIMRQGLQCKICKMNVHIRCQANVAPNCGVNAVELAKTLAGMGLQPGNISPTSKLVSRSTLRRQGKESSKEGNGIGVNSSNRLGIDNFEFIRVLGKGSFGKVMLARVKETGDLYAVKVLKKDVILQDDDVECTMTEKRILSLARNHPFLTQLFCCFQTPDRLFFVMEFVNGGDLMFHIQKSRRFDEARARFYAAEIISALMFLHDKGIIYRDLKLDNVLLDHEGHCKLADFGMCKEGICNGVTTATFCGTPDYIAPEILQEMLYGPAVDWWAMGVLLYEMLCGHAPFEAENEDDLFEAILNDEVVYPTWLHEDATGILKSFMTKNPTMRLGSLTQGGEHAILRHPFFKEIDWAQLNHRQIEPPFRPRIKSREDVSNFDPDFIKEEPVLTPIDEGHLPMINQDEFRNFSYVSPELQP

PKCγ = PKCγ (Homo sapiens, UniProt P05129); set-up: key: +—activation; ++—strong activation; details: cPKCs, gene PRKCG; cited from earlier work
PKCθ = PKCθ (Homo sapiens, UniProt Q04759); set-up: key: +—activation; ++—strong activation; details: nPKCs, gene PRKCQ; cited from earlier work
PKCθ, sequence (Q04759 whole entry): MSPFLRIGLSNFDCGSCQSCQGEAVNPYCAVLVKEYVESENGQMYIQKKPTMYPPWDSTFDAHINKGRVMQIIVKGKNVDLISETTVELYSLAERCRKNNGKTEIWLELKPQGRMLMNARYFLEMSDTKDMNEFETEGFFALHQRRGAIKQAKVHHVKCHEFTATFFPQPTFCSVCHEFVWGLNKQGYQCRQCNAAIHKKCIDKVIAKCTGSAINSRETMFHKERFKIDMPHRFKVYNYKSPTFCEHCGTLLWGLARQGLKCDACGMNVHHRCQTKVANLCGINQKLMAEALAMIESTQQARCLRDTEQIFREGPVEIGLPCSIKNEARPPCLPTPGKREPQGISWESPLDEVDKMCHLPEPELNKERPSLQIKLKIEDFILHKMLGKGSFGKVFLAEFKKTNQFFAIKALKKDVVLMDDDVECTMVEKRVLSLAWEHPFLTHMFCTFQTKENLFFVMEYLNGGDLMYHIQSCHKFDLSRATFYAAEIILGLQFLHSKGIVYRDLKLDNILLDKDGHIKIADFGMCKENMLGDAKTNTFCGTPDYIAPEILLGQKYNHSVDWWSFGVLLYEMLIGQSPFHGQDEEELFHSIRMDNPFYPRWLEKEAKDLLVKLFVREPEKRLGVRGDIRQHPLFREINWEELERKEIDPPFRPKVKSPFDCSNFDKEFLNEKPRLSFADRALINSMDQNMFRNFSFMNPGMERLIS

PKCδ = PKCδ (Homo sapiens, UniProt Q05655); set-up: key: +—activation; ++—strong activation; details: nPKCs, gene PRKCD; cited from earlier work
PKCδ, sequence (Q05655 whole entry): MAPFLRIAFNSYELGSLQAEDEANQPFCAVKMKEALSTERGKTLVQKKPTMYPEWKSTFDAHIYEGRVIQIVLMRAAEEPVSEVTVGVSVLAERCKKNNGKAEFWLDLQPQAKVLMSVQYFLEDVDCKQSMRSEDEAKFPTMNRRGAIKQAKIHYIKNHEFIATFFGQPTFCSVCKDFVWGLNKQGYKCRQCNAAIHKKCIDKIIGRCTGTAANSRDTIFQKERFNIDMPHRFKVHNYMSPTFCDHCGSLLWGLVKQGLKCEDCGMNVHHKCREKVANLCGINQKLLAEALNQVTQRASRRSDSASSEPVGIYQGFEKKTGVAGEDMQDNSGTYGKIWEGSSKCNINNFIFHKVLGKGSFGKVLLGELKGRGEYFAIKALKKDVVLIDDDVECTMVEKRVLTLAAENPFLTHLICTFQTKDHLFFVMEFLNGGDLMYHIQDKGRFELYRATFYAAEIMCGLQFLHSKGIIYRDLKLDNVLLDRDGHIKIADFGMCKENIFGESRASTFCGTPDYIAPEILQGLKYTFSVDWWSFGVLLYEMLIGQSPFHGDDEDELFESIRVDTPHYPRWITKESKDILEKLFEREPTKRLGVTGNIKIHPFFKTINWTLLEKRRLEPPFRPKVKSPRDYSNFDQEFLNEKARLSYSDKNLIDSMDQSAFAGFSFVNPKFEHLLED

U373 cells = assay: SMS assay in U373 cells; format: cell-based, human; details: versus vehicle and PMA (10 nM), FIG. 2C
Excerpt: as §1, §6, §7
as §5, with “line).” for “line). Active PKCm in the SMS assay (FIG. 2A) show a decrease in acceptor cells relative to vehicle at certain concentration.”

Row | Molecule | cell dye-sharing in the SMS assay (percentage of acceptor cells) (Hs578T cells) | effect on cell dye-sharing in the SMS assay [1] | activation of PKCα (PKCα) | activation of PKCε (PKCε) | inhibition of cell dye-sharing in the SMS assay [1] | activation of PKCγ (PKCγ) | activation of PKCβI/PKCβII (PKCβI/PKCβII) | activation of PKCδ (PKCδ) | further results
1 | CCC/C=C/C=C/C(=O)O[C@H]1/C(=C/C(=O)OC)C[C@H]2C[C@H]([C@@H](C)O)OC(=O)C[C@H](O)C[C@@H]3C[C@H](OC(C)=O)C(C)(C)[C@](O)(C[C@@H]4C/C(=C/C(=O)OC)C[C@H](/C=C/C(C)(C)[C@]1(O)O2)O4)O3 [bryostatin] | inhibition of cell dye-sharing |  |  |  |  |  |  |  | 
2 | O=S(=O)(NCCCCCCc1ccccc1)c1cccc2c(Cl)cccc12 [SC-9] | not interfering with cell dye-sharing | did not have any effect |  |  |  |  |  |  | 
3 | CCC/C=C/C=C/C(=O)O[C@H]1/C(=C/C(=O)OC)C[C@H]2C[C@H]([C@@H](C)O)OC(=O)C[C@H](O)C[C@@H]3C[C@H](OC(C)=O)C(C)(C)[C@](O)(C[C@@H]4C/C(=C/C(=O)OC)C[C@H](/C=C/C(C)(C)[C@]1(O)O2)O4)O3 [Bryostatin 1] |  |  | + | + | marked inhibition of cell dye-sharing |  |  |  | activation of PKCβI (PKCβI/PKCβII; βI only, activation and translocation in transfected CHO cells (Wender 2011)): + (βI); cell dye-sharing in the SMS assay (percentage of acceptor cells) (HepG2 cells): inhibition of cell dye-sharing
4 | CCCCCCCCCCCCCC(=O)O[C@@H]1[C@@H](C)[C@@]2(O)[C@@H](C=C(CO)C[C@]3(O)C(=O)C(C)=C[C@@H]23)[C@@H]2C(C)(C)[C@]12OC(C)=O [PMA, 12-O-tetradecanoyl-phorbol-13-acetate] | inhibition of cell dye-sharing |  | + | + | marked inhibition of cell dye-sharing | + | + | + | activation of PKCη (PKCη): +; activation of PKCθ (PKCθ): +
5 | CC(C)[C@H]1C(=O)N[C@H](CO)Cc2c[nH]c3cccc(c23)N1C [Indolactam V] | inhibition of cell dye-sharing |  | + | + | marked inhibition of cell dye-sharing | + | ++ | ++ | activation of PKCη (PKCη): +
6 | CCCCCC1CC1CC1CC1CCCCCCCC(=O)O (centres unmarked) [FR236924] | not interfering with cell dye-sharing | did not have any effect |  |  |  |  |  |  | 
7 | CCCCCCCCCCNc1cc(CO)c2cc[nH]c2c1 [6-(N-Decylamino)-4-Hydroxymethylindole] | not interfering with cell dye-sharing | did not have any effect |  |  |  |  |  |  | 
8 | Bryostatin 2 |  |  |  |  | marked inhibition of cell dye-sharing |  |  |  | cell dye-sharing in the SMS assay (percentage of acceptor cells) (U373 cells): inhibition of cell dye-sharing
9 | C/C=C(/C)C(=O)O[C@H]1C(C)=C[C@]23C(=O)[C@@H](C=C(CO)[C@@H](O)[C@]12O)[C@H]1[C@@H](C[C@H]3C)C1(C)C [Ingenol-3-angelate] |  | did not have any effect | + | + |  | + | + | + | disconnection of tumour cell types in the assay for disconnection ([1]; several different tumour cell types): does not disconnect
